From ChEMBL document CHEMBL1201862, “PubChem BioAssay data set” (2004)
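In this assay, cells in 96-well plates receive the compound at five concentrations for 48 hours. Endpoints are linearly interpolated between the surrounding concentrations. Here, GI50 denotes the concentration required for 50% inhibition of growth.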 Activity calls are given as the source filed them. Cut-off read from the data, not from the text of the source: active = GI50 up to about 1.1 µM and inactive = higher.

Experiments:
Assay in all cases: DTP human tumour cell line panel, 48 h
[1] = tested on: OVCAR-5
[2] = tested on: DU-145
[3] = tested on: MDA-MB-435
[4] = tested on: NCI-H226
[5] = tested on: HT-29
[6] = tested on: MOLT-4
[7] = tested on: NCI-H23
[8] = tested on: T47D
[9] = tested on: UACC-257
[10] = tested on: LOX IMVI
[11] = tested on: UO-31
[12] = tested on: HCT-116
[13] = tested on: Hs-578T
[14] = tested on: HL-60
[15] = tested on: ACHN
[16] = tested on: RXF 393
[17] = tested on: SF-268
[18] = tested on: A549
[19] = tested on: PC-3
[20] = tested on: Malme-3M

Measured: GI50

CCCCCCCCCCc1c2nc(c(CCCCCCCCCC)c3ccc([nH]3)c(CCCCCCCCCC)c3nc(c(CCCCCCCCCC)c4ccc1[nH]4)C=C3)C=C2
inactive: [1] > 100 µM | [2] > 100 µM | [3] > 100 µM | [4] > 100 µM | [5] > 100 µM | [6] > 100 µM | [7] > 100 µM | [8] > 100 µM | [9] > 100 µM | [10] > 100 µM | [11] > 100 µM | [12] > 100 µM | [13] 30 µM | [14] > 100 µM | [15] > 100 µM | [16] > 100 µM | [17] > 100 µM | [18] > 100 µM | [19] > 100 µM | [20] > 100 µM

O=C(O)c1ccccc1-c1ccccc1C(=O)Nc1ccc2c(c1)nc(O)c1ccccc12
inactive: [1] > 100 µM | [2] > 100 µM | [3] 89.7 µM | [4] > 100 µM | [5] > 100 µM | [6] 25.8 µM | [7] > 100 µM | [8] > 100 µM | [9] > 100 µM | [10] 48.9 µM | [11] > 100 µM | [12] > 100 µM | [13] 98.4 µM | [14] 94.8 µM | [15] > 100 µM | [16] > 100 µM | [17] > 100 µM | [18] > 100 µM | [19] > 100 µM | [20] > 100 µM

N=C(N)/N=C(\N)Nc1ccc(C(=O)O)cc1
inactive: [1] > 100 µM | [2] > 100 µM | [3] > 100 µM | [4] > 100 µM | [5] > 100 µM | [6] > 100 µM | [7] > 100 µM | [8] > 100 µM | [9] > 100 µM | [10] > 100 µM | [11] > 100 µM | [12] > 100 µM | [13] > 100 µM | [14] > 100 µM | [15] > 100 µM | [16] > 100 µM | [17] > 100 µM | [18] > 100 µM | [19] > 100 µM | [20] > 100 µM

O=C1CSC(c2ccccc2)N1c1ccc(-n2c(-c3ccccc3)nc3ccccc3c2=O)cc1 (stereo not given)
inactive: [1] > 100 µM | [2] > 100 µM | [3] 63.4 µM | [4] > 77.3 µM | [5] 61.4 µM | [6] 28.1 µM | [7] > 71.3 µM | [8] 34.8 µM | [9] > 100 µM | [10] 50.5 µM | [11] 28.4 µM | [12] 39.2 µM | [13] > 83.8 µM | [14] 41.8 µM | [15] 47.2 µM | [16] > 100 µM | [17] 96.8 µM | [18] > 74.6 µM | [19] 33.9 µM | [20] > 92.5 µM
